Data from patent EP0828726B1, “TRICYCLIC INHIBITORS OF MATRIX METALLOPROTEINASES” (WARNER-LAMBERT COMPANY, priority 1995, dated 1996).

Assays:
[1] = system: Mycobacterium footpad edema; experiment: Mycobacterium footpad edema assay (MFE); format: in vivo, Wistar rats; settings: in Rattus norvegicus, po, paw swelling on third day
Method: The activity of Example 2 as a general inhibitor of inflammation was tested using the Mycobacterium footpad edema assay (MFE) in Wistar rats. Compound was administered daily by gavage at 2 mg/kg, 10 mg/kg, or 50 mg/kg.
Male outbred Wistar rats (110-125 g, Charles River Labs, Portage, MI) were used in this study. Rats were housed for a minimum of 1 week before use. Food and water were supplied ad libitum. Foot pad edema was induced following the method described by Martel R.R. and Klicius J., "Comparisons in rats of the antiinflammatory and gastric irritant effects of etodolac with several clinically effective antiinflammatory drugs", Agents and Actions, 1982;12:295. Briefly, male Wistar rats were injected subcutaneously into the right hind footpad with 0.1 mL of 5 mg/mL suspension of killed and dried Mycobacterium butyricum (Difco, Detroit, MI) in liquid paraffin. Compound was suspended in 0.5% hydroxypropylmethylcellulose (HPMC) containing 0.2% Tween-80 and administered orally 1 hour before injection. Subsequent doses of the compound were given 24 and 48 hours after the Mycobacterium. Control animals were given vehicle alone. Swelling was assessed on the third day by subtracting the initial volume (determined immediately following the Mycobacterium injection) from the final volume of the treated paw. Paw volume was determined by mercury plethysmography. The percent inhibition of edema achieved in each compound-treated group was determined by comparison with swelling in the vehicle-treated group and the ID50 values were determined by regression analysis. Statistical significance between experimental groups was evaluated using a Student's t-test. […]

[2] = molecular target: T1, gelatinase B (recombinant full-length enzyme) (Homo sapiens, UniProt P14780); experiment: Thiopeptolide substrate IC50 assay, gelatinase B; format: biochemical
T1 construct: gelatinase B (recombinant full-length enzyme)
T1 sequence (P14780 94-707): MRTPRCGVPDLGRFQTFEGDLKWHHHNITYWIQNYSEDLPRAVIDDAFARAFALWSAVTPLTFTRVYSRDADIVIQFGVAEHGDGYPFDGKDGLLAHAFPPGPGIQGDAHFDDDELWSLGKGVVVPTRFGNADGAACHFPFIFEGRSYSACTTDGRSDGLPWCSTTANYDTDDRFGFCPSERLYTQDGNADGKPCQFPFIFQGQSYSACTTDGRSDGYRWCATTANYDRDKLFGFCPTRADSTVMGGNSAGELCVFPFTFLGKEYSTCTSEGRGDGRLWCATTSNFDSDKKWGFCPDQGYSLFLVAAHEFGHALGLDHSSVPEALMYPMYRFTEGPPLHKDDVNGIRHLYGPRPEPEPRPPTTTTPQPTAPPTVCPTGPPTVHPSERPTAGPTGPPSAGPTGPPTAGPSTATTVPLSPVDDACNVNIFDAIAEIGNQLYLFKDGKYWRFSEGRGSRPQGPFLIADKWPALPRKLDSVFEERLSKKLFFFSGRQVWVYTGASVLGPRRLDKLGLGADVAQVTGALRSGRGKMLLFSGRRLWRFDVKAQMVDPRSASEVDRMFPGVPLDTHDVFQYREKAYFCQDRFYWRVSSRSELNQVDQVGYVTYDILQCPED
Method: (§1) Experiments were carried out with both the full-length enzymes and the catalytic domains. […] IC50 values were determined using a thiopeptolide substrate, Ac-Pro-Leu-Gly-thioester-Leu-Leu-Gly-OEt (Ye Q.-Z., Johnson L.L., Hupe D.J., and Baragi V., "Purification and Characterization of the Human Stromelysin Catalytic Domain Expressed in Escherichia coli", Biochemistry, 1992;31:11231-11235). […] IC50 values for gelatinase B, and collagenase, were >100 µM.

[3] = molecular target: T2, gelatinase A (recombinant full-length enzyme) (Homo sapiens, UniProt P08253); experiment: Thiopeptolide substrate IC50 assay, full-length gelatinase A; format: biochemical
T2 construct: gelatinase A (recombinant full-length enzyme)
T2 sequence (P08253 110-660): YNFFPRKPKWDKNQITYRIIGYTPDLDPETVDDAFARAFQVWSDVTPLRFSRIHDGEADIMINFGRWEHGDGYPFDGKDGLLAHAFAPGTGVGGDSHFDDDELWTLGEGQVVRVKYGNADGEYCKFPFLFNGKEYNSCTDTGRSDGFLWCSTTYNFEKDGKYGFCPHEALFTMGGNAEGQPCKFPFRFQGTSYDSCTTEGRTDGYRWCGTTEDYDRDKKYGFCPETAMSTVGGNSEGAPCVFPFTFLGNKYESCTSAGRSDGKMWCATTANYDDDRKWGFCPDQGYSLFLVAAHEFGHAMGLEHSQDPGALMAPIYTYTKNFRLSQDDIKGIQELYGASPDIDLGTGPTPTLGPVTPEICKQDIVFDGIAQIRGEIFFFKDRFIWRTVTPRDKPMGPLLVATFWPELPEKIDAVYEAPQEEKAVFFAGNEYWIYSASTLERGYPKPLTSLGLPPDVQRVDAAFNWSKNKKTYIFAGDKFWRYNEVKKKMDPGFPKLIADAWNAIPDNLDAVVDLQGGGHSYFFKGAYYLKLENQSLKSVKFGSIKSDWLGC
Method: as §1

[4] = molecular target: T3, stromelysin-1 (full-length native enzyme) (Homo sapiens, UniProt P08254); experiment: Thiopeptolide substrate IC50 assay, full-length stromelysin-1; format: biochemical
T3 construct: stromelysin-1 (full-length native enzyme)
T3 sequence (P08254 100-477): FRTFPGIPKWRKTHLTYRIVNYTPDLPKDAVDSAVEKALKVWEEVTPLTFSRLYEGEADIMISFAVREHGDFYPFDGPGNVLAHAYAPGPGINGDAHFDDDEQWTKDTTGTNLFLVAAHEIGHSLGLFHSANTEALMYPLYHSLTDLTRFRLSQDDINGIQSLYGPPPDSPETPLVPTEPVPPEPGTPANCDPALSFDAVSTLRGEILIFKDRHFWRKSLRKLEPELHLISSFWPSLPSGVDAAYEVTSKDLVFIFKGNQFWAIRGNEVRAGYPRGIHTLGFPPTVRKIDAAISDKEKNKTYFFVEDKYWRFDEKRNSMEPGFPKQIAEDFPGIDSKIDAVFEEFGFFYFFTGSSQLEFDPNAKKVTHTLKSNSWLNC
Method: as §1

[5] = molecular target: T4, SCD (stromelysin-1 catalytic domain) (Homo sapiens, UniProt P08254); experiment: Thiopeptolide substrate IC50 assay, stromelysin-1 catalytic domain; format: biochemical
T4 construct: The gene for the catalytic domain of stromelysin-1, SCD, was constructed by removing the propeptide and C-terminal domain; made in house; host or cells: Escherichia coli
T4 sequence (P08254 100-272 limits assumed): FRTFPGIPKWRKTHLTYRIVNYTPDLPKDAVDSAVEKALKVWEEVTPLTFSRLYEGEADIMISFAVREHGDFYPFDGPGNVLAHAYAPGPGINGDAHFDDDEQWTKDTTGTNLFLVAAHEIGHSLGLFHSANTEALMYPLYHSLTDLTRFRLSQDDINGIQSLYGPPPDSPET
Text: (§2) Matrix metalloproteinases share high sequence homology and the catalytic domains of each of the MMPs can be identified by sequence alignment. The gene for the catalytic domain of stromelysin-1, SCD, was constructed by removing the propeptide and C-terminal domain (Ye Q.-Z., Johnson L.L, Hupe D.J., and Baragi V., "Purification and Characterization of the Human Stromelysin Catalytic Domain Expressed in Escherichia coli", Biochemistry, 1992;31:11231-11235). The gelatinase A catalytic domain, GCD, was similarly constructed with the additional removal of the fibronectin-like insert which interrupts the catalytic domain (Ye Q.-Z., Johnson L.L, Yu A.E., and Hupe D., "Reconstructed 19 kDa Catalytic Domain of Gelatinase A is an Active Proteinase", Biochemistry, 1995;34:4702-4708). Both truncated proteins cleave synthetic peptide substrates and the natural substrates proteoglycan and gelatin in a manner similar to the full-length enzymes and can be used to identify matrix metalloproteinase inhibitors.
(§3) Experiments were carried out with both the full-length enzymes and the catalytic domains. […] IC50 values were determined using a thiopeptolide substrate, Ac-Pro-Leu-Gly-thioester-Leu-Leu-Gly-OEt (Ye Q.-Z., Johnson L.L., Hupe D.J., and Baragi V., "Purification and Characterization of the Human Stromelysin Catalytic Domain Expressed in Escherichia coli", Biochemistry, 1992;31:11231-11235). […]

EAE = experiment: Experimental allergic encephalomyelitis (EAE), Lewis rat acute model; format: in vivo
Method: Female Lewis rats were purchased from Harlan Sprague-Dawley (Indianapolis, IN) and were used at 8 to 10 weeks of age. Active EAE was induced by injection of 0.05 mL emulsion of myelin basic protein (MBP) with complete Freund's adjuvant (CFA), containing 25 µg guinea pig MBP and 100 µg Mycobacterium butyricum (Difco Laboratories, Detroit, MI) into one hind footpad. Immunized rats were observed daily for clinical signs of EAE and scored as follows: 0, no symptoms; 1, loss of tail tonicity; 2, paresis; 3, hind limb paralysis, often accompanied by incontinence; and 4, death. Formalin-fixed brain slice sections were stained with hematoxylin-eosin and evaluated microscopically for perivascular and parenchymal infiltration. Compound was administered by gavage as a solution in sterile saline in a volume of 500 µL. […] Several different protocols were used to define the efficacy and timing requirements for potency.
Protocol 1: Compound was administered daily at 50 mg/kg beginning on Day 0 and continuing through Day 14, with MBP in CFA administered on Day 0 also. […] N = 5 for all groups.
Controls run in parallel included CFA only and MBP in CFA. N = 4 for treatment groups. N = 8 for controls.

[6] = molecular target: T5, GCD (recombinant gelatinase A catalytic domain) (Homo sapiens, UniProt P08253, DEL220-393); experiment: Thiopeptolide substrate IC50 assay, gelatinase A catalytic domain; format: biochemical
T5 construct: The gelatinase A catalytic domain, GCD, was similarly constructed with the additional removal of the fibronectin-like insert which interrupts the catalytic domain; made in house
T5 sequence (P08253 with tags, fused parts or gaps DEL220-393): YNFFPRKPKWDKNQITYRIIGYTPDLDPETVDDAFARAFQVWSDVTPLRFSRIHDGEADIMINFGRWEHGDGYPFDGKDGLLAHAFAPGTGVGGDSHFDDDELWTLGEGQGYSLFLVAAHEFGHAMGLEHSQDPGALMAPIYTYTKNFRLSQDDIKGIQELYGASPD
Text: as §2, §3

[7] = Protocol 1: CFA + MBP, 50 mg/kg daily oral Day 0 through Day 14
[8] = Protocol 2: CFA + MBP, 10 mg/kg alternate days
[9] = Protocol 2: CFA + MBP, 50 mg/kg alternate days

SMILES: O=C(O)CCC(=NO)c1ccc2oc3ccccc3c2c1 [Example 2, 4-Dibenzofuran-2-yl-4-hydroximino-butyric acid]
- inhibition at 2 mg/kg ([1]; 2 mg/kg daily by gavage): 23%
- inhibition at 10 mg/kg ([1]; 10 mg/kg daily by gavage): 27%
- inhibition at 50 mg/kg ([1]; 50 mg/kg daily by gavage): 40%
- IC50 [2]: > 100 µM
- IC50 [3]: 1.31 µM
- IC50 [4]: 7.64 µM
- IC50 [5]: 7.12 µM
- treated animals showing reduction of symptoms (EAE; Protocol 1, 50 mg/kg daily): 20%
- treated animals showing total inhibition of symptoms (EAE; Protocol 1, 50 mg/kg daily): 80%
- leukocyte migration across the blood-brain barrier (EAE; Protocol 1, 50 mg/kg daily, histology of brain slices): completely prevented
- percentage of animals responding (EAE; Protocol 1, 50 mg/kg daily, total inhibition or reduction of symptoms): 100%
- Day of Peak Expression (EAE; [7]): 12
- Effect on EAE Rats (≥Paresis/ Total) (EAE; [7]): 1/5
- Clinical Grade at Peak of Disease (EAE; Protocol 1: CFA + MBP, 50 mg/kg daily oral Day 0 through Day 14, score 0-4, N = 5): 1.0
- Effect on EAE Rats (≥Paresis/ Total) (EAE; Protocol 1: CFA only (no MBP), 50 mg/kg daily oral): 0/5
- Clinical Grade at Peak of Disease (EAE; Protocol 1: CFA only (no MBP), 50 mg/kg daily oral, N = 5): 0
- Day of Peak Expression (EAE; [8]): 14
- Effect on EAE Rats (≥Paresis/ Total) (EAE; [8]): 0/4
- Clinical Grade at Peak of Disease (EAE; Protocol 2: CFA + MBP, 10 mg/kg on Day 0 and alternate days through Day 14, N = 4): 0.6
- Day of Peak Expression (EAE; [9]): 15
- Effect on EAE Rats (≥Paresis/ Total) (EAE; [9]): 0/4
- Clinical Grade at Peak of Disease (EAE; Protocol 2: CFA + MBP, 50 mg/kg on Day 0 and alternate days through Day 14, N = 4): 0.8
- IC50 [6]: 0.04 µM
